Test results from PubChem BioAssay (NCI).
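How tested: cells in 96-well plates exposed to compound for 48 hours at five concentrations. At the GI50, growth is halved. The concentration for full growth arrest is given as TGI.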

What was measured:
Experiment in all cases: NCI anticancer screen, dose series, 48 h
MCF7 breast = test system: MCF7 breast
TK-10 renal = test system: TK-10 renal
RXF 393 renal = test system: RXF 393 renal
SK-MEL-2 melanoma = test system: SK-MEL-2 melanoma
MDA-MB-435 = test system: MDA-MB-435
HS 578T breast = test system: HS 578T breast
CAKI-1 renal = test system: CAKI-1 renal
PC-3 prostate = test system: PC-3 prostate
NCI-H460 lung = test system: NCI-H460 lung
SNB-75 CNS = test system: SNB-75 CNS

SMILES | TGI (MCF7 breast) [µM] | TGI (TK-10 renal) [µM] | TGI (RXF 393 renal) [µM] | TGI (SK-MEL-2 melanoma) [µM] | TGI (MDA-MB-435) [µM] | TGI (HS 578T breast) [µM] | TGI (CAKI-1 renal) [µM] | TGI (PC-3 prostate) [µM] | TGI (NCI-H460 lung) [µM] | TGI (SNB-75 CNS) [µM] | GI50 (MCF7 breast) [µM] | GI50 (RXF 393 renal) [µM] | GI50 (MDA-MB-435) [µM] | GI50 (NCI-H460 lung) [µM] | GI50 (CAKI-1 renal) [µM] | GI50 (SNB-75 CNS) [µM] | GI50 (TK-10 renal) [µM] | GI50 (SK-MEL-2 melanoma) [µM] | GI50 (HS 578T breast) [µM] | GI50 (PC-3 prostate) [µM]
O=C(/C=C/c1ccc(O)cc1)NCCc1ccc(O)cc1 | > 12.5 | > 12.5 | > 12.5 | > 12.5 | > 12.5 | > 12.5 | > 12.5 | > 12.5 | > 12.5 |  |  |  |  |  |  |  |  |  |  | 
COc1cccc(-c2nc3c(C(=O)NCCN(C)C)cccc3[nH]2)c1 | > 100 |  | 56.7 | 34.4 |  |  | > 96 |  | 34.6 | 68.1 |  |  |  |  |  |  |  |  |  | 
C[N+]1(C)CCC(C#N)(c2ccccc2)CC1 | > 100 | > 100 | > 100 |  |  | > 100 | > 100 |  | > 100 | > 100 |  |  |  |  |  |  |  |  |  | 
Oc1cc2cccc[n+]2c2cccc(Cl)c12 | 36.5 |  | 74.6 |  | 40.8 |  |  |  |  |  | 16.7 | 26.1 | 17.4 | 82.1 |  |  |  |  |  | 
CC1(C)COC(/C=C/C2=NC(C)(C)CO2)=N1 | 33.1 | 27.2 | 34.5 | 82.9 | 82.9 | 23.1 | 23.4 | 51.7 | > 100 | > 100 |  |  |  |  |  |  |  |  |  | 
CC(C)C(N=Cc1ccccc1O)C(=O)O (stereo unspecified) | > 100 | > 100 |  | > 100 | > 100 | > 100 | > 100 | > 100 | > 100 |  |  |  |  |  |  |  |  |  |  | 
O=C1/C(=C\c2ccc(-c3ccc(Cl)cc3Cl)o2)SC2N=C(COc3ccc(Cl)cc3)NN12 (stereo unspecified) | > 100 | 18.3 | 88 | > 100 | > 100 | 87.8 | > 100 | > 100 | > 100 | > 100 |  |  |  |  |  |  |  |  |  | 
CC(O)C(O)C(N)CC=O (stereo unspecified) | > 500 |  | > 500 | > 500 |  |  | > 500 |  | > 500 | > 500 |  |  |  |  |  |  |  |  |  | 
O=C(O)C1CC(c2ccccc2)=NN1c1ccccc1 (stereo unspecified) | > 100 | > 100 | > 100 | > 100 | > 100 | 81.6 | > 100 | > 100 | > 100 | > 100 |  |  |  |  |  |  |  |  |  | 
CCOC(=O)n1cncc1CC(NC(=O)Cc1c(C(=O)C=C(C)C)[nH]c2ccccc12)C(=O)OC (stereo unspecified) | 84.1 | 34.2 | 28.5 | 34.2 | 37.1 | 65.9 | 34.8 | 33.6 | 58 | 49.7 |  |  |  |  |  |  |  |  |  | 
CN(C)Cc1ccc(C(=O)Nc2ccc3ncnc(Nc4ccc(Oc5cccc(F)c5)c(Cl)c4)c3c2)cc1 | 3 |  | 2.99 |  | 3.25 |  | 3.15 |  | 3.31 | 2.84 | 1.54 | 1.5 | 1.74 | 1.76 | 1.68 | 1.48 |  |  |  | 
Fc1ccc(-c2ccc(-c3nnc(-c4cc(F)c(Cl)cc4Cl)o3)o2)cc1Cl | > 100 | > 100 | > 100 | > 100 | > 100 | 67.6 | 89.9 | > 100 | > 100 | > 100 | 26.8 | 48 | 34.6 | 29.7 | 33.7 | 30.6 | 27.2 | 54.8 | 22.3 | 36.9
c1ccc2sc(C3(N4CCCCC4)CCCC3)cc2c1 | 21.5 | 28.5 | 30.3 |  | 29.4 | 33.4 | 38.4 |  | 20.7 | 30.6 |  |  |  |  |  |  |  |  |  | 
COc1ccc(SC(C)(SC)c2ccccn2)c(OC)n1 (stereo unspecified) | > 100 | > 100 | > 100 | > 100 | > 100 | > 100 | > 100 | > 100 | > 100 |  |  |  |  |  |  |  |  |  |  | 
C[C@]12CC(c3ccccc3O1)C(C(=O)NC13CC4CC(CC(C4)C1)C3)C(=O)N2 (stereo partly specified) | > 100 | > 100 | 57.6 | 43 | 65.1 | > 100 | > 100 | > 100 | > 100 | 74 |  |  |  |  |  |  |  |  |  | 
CC(=O)OCC1OC(O[C@@H]2c3c(O)c4c(c(O)c3C3=C(NN(c5ccc([N+](=O)[O-])cc5[N+](=O)[O-])[Se]3=O)[C@@]2(C)O)C(=O)c2ccccc2C4=O)C(OC(C)=O)C(OC(C)=O)C1OC(C)=O (stereo partly specified) | 0.498 | 2.05 | 3.81 | 0.615 | 0.332 | 0.927 | 0.722 | 1.02 | 0.72 | 6.24 |  |  |  |  |  |  |  |  |  | 
O=S(=O)(O)c1c(N=Nc2c(O)ccc3ccccc23)ccc2ccccc12 |  | > 100 | > 100 | > 100 | > 100 | > 100 | > 100 | > 100 |  | > 100 |  |  |  |  |  |  |  |  |  | 
O=C1c2ccccc2-c2ccc(N=[N+]([O-])c3ccc4c(c3)C(=O)c3ccccc3-4)cc21 | > 100 | > 100 | > 100 | > 100 | > 100 | > 100 | > 100 | > 100 | > 100 | > 100 |  |  |  |  |  |  |  |  |  | 
COC(=O)C1=CC[C@@H]2C(C(=O)O)=CO[C@@H](OC3OC(CO)C(O)C(O)C3O)[C@H]12 (stereo partly specified) | > 131 |  | > 300 | > 300 |  |  | > 300 |  | > 300 | > 300 |  |  |  |  |  |  |  |  |  | 
C=C1C(=O)OC2C1C(OC(=O)/C(C)=C/C)CC1(C)C(=O)CCC(=C)C21 (stereo unspecified) | 18 | 25.7 | 11 | 24.2 | > 58.8 | 78 | 17.9 | 22.9 | > 52.8 | 32 |  |  |  |  |  |  |  |  |  | 
N#C/C=C1\C=CC(O)C(O)C1OC1OC(CO)C(O)C(O)C1O (stereo unspecified) | > 100 | > 100 | > 100 | > 100 | > 100 | > 100 | > 100 | > 100 | > 100 | > 100 |  |  |  |  |  |  |  |  |  | 
